Values quoted from earlier work in US20050180917A1, “Delivery of neutron capture elements for neutron capture therapy” (priority 2001, published 2005).

Key:
[1] = in vivo
[2] = review of prior art

| Compound | Absolute tumour concentration [1] [µg/g] | toxicity [2] |
| --- | --- | --- |
| sodium mercaptoundecahydrododecaborate [BSH] | 6.9 | low toxicity |
| N[C@@H](Cc1ccc(B(O)O)cc1)C(=O)O [BPA, 4-dihydroxyborylphenylalanine] | 16.5 | low toxicity |
